Experimental data from patent US20080153896A1, “Polymorphic Forms of an HMG-CoA Reductase Inhibitor and Uses Thereof” (priority 2006, published 2008).

Assay: Stability (integrity) testing of amorphous and polymorphic form under storage conditions, RP-HPLC
Format: physicochemical
Design: key to Impurity RRT 0.738 / Impurity RRT 0.949 / Impurity RRT 1.050 / Impurity RRT 1.550 / Impurity RRT 0.136 / Impurity RRT 0.720 / Impurity RRT 0.706 / Impurity RRT 1.18 / Impurity RRT 1.826: % of total UV absorption (HPLC peak area); Impurity RRT 1.104 / Impurity RRT 1.698: unit not given beside the values
Details: Batch 3 PP00205
Method: The integrity of the different forms of the (3R, 5R)-7-[2-(4-fluorophenyl)-5-isopropyl-3-phenyl-4-[(4-hydroxymethylphenylamino)carbonyl]-pyrrol-1-yl]-3,5-dihydroxy-heptanoic acid, hemi calcium salt, was tested under different atmospheric conditions to determine the stability of the amorphous and polymorphic form of the drug in various storage environments. Reversed Phase-HPLC (RP-HPLC) was used to separate (3R, 5R)-7-[2-(4-fluorophenyl)-5-isopropyl-3-phenyl-4-[(4-hydroxymethylphenylamino)carbonyl]-pyrrol-1-yl]-3,5-dihydroxy-heptanoic acid, hemi calcium salt, from smaller molecules representing breakdown products as well as oxidized drug. The relative amount of the drug was reported as a percent of total absorption by UV. The total peak area of all UV absorption impurities was used to define total impurity of the drug. Impurities are defined by their relative retention time (RRT) compared to native drug. Samples were injected onto a C18 column using standard temperature, gradient and run-time conditions.
The results of this integrity testing for the amorphous form of (3R, 5R)-7-[2-(4-fluorophenyl)-5-isopropyl-3-phenyl-4-[(4-hydroxymethylphenylamino)carbonyl]-pyrrol-1-yl]-3,5-dihydroxy-heptanoic acid, hemi calcium salt, is shown in Table 5.
Three separate batches of polymorphic Form I of (3R, 5R)-7-[2-(4-fluorophenyl)-5-isopropyl-3-phenyl-4-[(4-hydroxymethylphenylamino)carbonyl]-pyrrol-1-yl]-3,5-dihydroxy-heptanoic acid, hemi calcium salt, were prepared and tested under the same atmospheric conditions described for the amorphous form.

- Assay (5° C. 2M): 98.21 % W/W
- Description (5° C. 2M): White
- Highest Impurity (5° C. 2M): 0.402
- Impurity RRT 0.935 (5° C. 2M): 0.402
- Impurity RRT 1.045 (5° C. 2M): 0.340
- Impurity RRT 1.095 (5° C. 2M): 0.155
- Impurity RRT 1.44 (5° C. 2M): 0.203
- Impurity RRT 1.590 (5° C. 2M): 0.096
- Impurity RRT 1.640 (5° C. 2M): 0.064
- Impurity RRT 1.698 (5° C. 2M): 0.067
- Total Impurity (5° C. 2M): 1.33
- Water (5° C. 2M): 4.02 % W/W
- Assay (5° C. 3M): 98.20 % W/W
- Description (5° C. 3M): White
- Highest Impurity (5° C. 3M): 0.436
- Impurity RRT 0.935 (5° C. 3M): 0.416
- Impurity RRT 1.045 (5° C. 3M): 0.436
- Impurity RRT 1.095 (5° C. 3M): 0.155
- Impurity RRT 1.44 (5° C. 3M): 0.203
- Impurity RRT 1.590 (5° C. 3M): 0.093
- Impurity RRT 1.640 (5° C. 3M): 0.061
- Impurity RRT 1.698 (5° C. 3M): 0.065
- Total Impurity (5° C. 3M): 1.43
- Water (5° C. 3M): 4.69 % W/W
- Assay (5° C. 4M): 98.22 % W/W
- Description (5° C. 4M): White
- Highest Impurity (5° C. 4M): 0.381
- Impurity RRT 0.138 (5° C. 4M): 0.219
- Impurity RRT 0.935 (5° C. 4M): 0.381
- Impurity RRT 1.045 (5° C. 4M): 0.324
- Impurity RRT 1.095 (5° C. 4M): 0.128
- Impurity RRT 1.449 (5° C. 4M): 0.220
- Impurity RRT 1.596 (5° C. 4M): 0.077
- Impurity RRT 1.640 (5° C. 4M): 0.081
- Impurity RRT 1.698 (5° C. 4M): 0.057
- Total Impurity (5° C. 4M): 1.487
- Water (5° C. 4M): 5.08 % W/W
- Assay (5° C. 5M): 98.53 % W/W
- Description (5° C. 5M): White
- Highest Impurity (5° C. 5M): 0.410
- Impurity RRT 0.138 (5° C. 5M): 0.231
- Impurity RRT 0.935 (5° C. 5M): 0.410
- Impurity RRT 1.045 (5° C. 5M): 0.321
- Impurity RRT 1.095 (5° C. 5M): 0.140
- Impurity RRT 1.449 (5° C. 5M): 0.198
- Impurity RRT 1.596 (5° C. 5M): 0.075
- Impurity RRT 1.640 (5° C. 5M): 0.049
- Impurity RRT 1.698 (5° C. 5M): 0.058
- Total Impurity (5° C. 5M): 1.482
- Water (5° C. 5M): 4.79 % W/W
- Assay (5° C. 6M): 98.15 % W/W
- Description (5° C. 6M): White
- Highest Impurity (5° C. 6M): 0.368
- Impurity RRT 0.138 (5° C. 6M): 0.256
- Impurity RRT 0.935 (5° C. 6M): 0.368
- Impurity RRT 1.045 (5° C. 6M): 0.315
- Impurity RRT 1.095 (5° C. 6M): 0.165
- Impurity RRT 1.449 (5° C. 6M): 0.211
- Impurity RRT 1.596 (5° C. 6M): 0.081
- Impurity RRT 1.640 (5° C. 6M): 0.049
- Impurity RRT 1.698 (5° C. 6M): 0.050
- Total Impurity (5° C. 6M): 1.495
- Water (5° C. 6M): 4.78 % W/W
- Assay (5° C. 9M): 98.14 % W/W
- Description (5° C. 9M): White
- Highest Impurity (5° C. 9M): 0.390
- Impurity RRT 0.138 (5° C. 9M): 0.222
- Impurity RRT 0.935 (5° C. 9M): 0.390
- Impurity RRT 1.045 (5° C. 9M): 0.372
- Impurity RRT 1.095 (5° C. 9M): 0.142
- Impurity RRT 1.449 (5° C. 9M): 0.174
- Impurity RRT 1.596 (5° C. 9M): 0.088
- Impurity RRT 1.640 (5° C. 9M): 0.049
- Impurity RRT 1.698 (5° C. 9M): 0.053
- Total Impurity (5° C. 9M): 1.490
- Water (5° C. 9M): 5.39 % W/W
- Assay (5° C. 12M): 98.31 % W/W
- Description (5° C. 12M): White
- Highest Impurity (5° C. 12M): 0.438
- Impurity RRT 0.935 (5° C. 12M): 0.438
- Impurity RRT 1.045 (5° C. 12M): 0.383
- Impurity RRT 1.095 (5° C. 12M): 0.177
- Impurity RRT 1.449 (5° C. 12M): 0.217
- Impurity RRT 1.596 (5° C. 12M): 0.090
- Impurity RRT 1.640 (5° C. 12M): 0.066
- Impurity RRT 1.698 (5° C. 12M): 0.066
- Total Impurity (5° C. 12M): 1.437
- Water (5° C. 12M): 5.97 % W/W
- Assay (5° C./1M): 98.26 % W/W
- Description (5° C./1M): White
- Highest Impurity (5° C./1M): 0.421
- Impurity RRT 0.706 (5° C./1M): 0.042
- Impurity RRT 0.935 (5° C./1M): 0.421
- Impurity RRT 1.045 (5° C./1M): 0.352
- Impurity RRT 1.095 (5° C./1M): 0.165
- Impurity RRT 1.44 (5° C./1M): 0.21
- Impurity RRT 1.590 (5° C./1M): 0.100
- Impurity RRT 1.640 (5° C./1M): 0.074
- Impurity RRT 1.698 (5° C./1M): 0.071
- Total Impurity (5° C./1M): 1.455
- Water (5° C./1M): 4.77 % W/W
- Assay (25° C./60% RH 3M): 98.11 % W/W
- Description (25° C./60% RH 3M): White
- Highest Impurity (25° C./60% RH 3M): 0.437
- Impurity RRT 0.935 (25° C./60% RH 3M): 0.437
- Impurity RRT 1.045 (25° C./60% RH 3M): 0.372
- Impurity RRT 1.095 (25° C./60% RH 3M): 0.164
- Impurity RRT 1.44 (25° C./60% RH 3M): 0.225
- Impurity RRT 1.590 (25° C./60% RH 3M): 0.094
- Impurity RRT 1.640 (25° C./60% RH 3M): 0.062
- Impurity RRT 1.698 (25° C./60% RH 3M): 0.065
- Total Impurity (25° C./60% RH 3M): 1.42
- Water (25° C./60% RH 3M): 4.65 % W/W
- Assay (25° C./60% RH 6M): 98.10 % W/W
- Description (25° C./60% RH 6M): White
- Highest Impurity (25° C./60% RH 6M): 0.476
- Impurity RRT 0.935 (25° C./60% RH 6M): 0.476
- Impurity RRT 1.045 (25° C./60% RH 6M): 0.324
- Impurity RRT 1.095 (25° C./60% RH 6M): 0.191
- Impurity RRT 1.449 (25° C./60% RH 6M): 0.196
- Impurity RRT 1.596 (25° C./60% RH 6M): 0.071
- Impurity RRT 1.640 (25° C./60% RH 6M): 0.061
- Impurity RRT 1.698 (25° C./60% RH 6M): 0.061
- Total Impurity (25° C./60% RH 6M): 1.380
- Water (25° C./60% RH 6M): 4.96 % W/W
- Assay (25° C./60% RH 9M): 97.95 % W/W
- Description (25° C./60% RH 9M): White
- Highest Impurity (25° C./60% RH 9M): 0.408
- Impurity RRT 0.935 (25° C./60% RH 9M): 0.408
- Impurity RRT 1.045 (25° C./60% RH 9M): 0.361
- Impurity RRT 1.095 (25° C./60% RH 9M): 0.187
- Impurity RRT 1.449 (25° C./60% RH 9M): 0.225
- Impurity RRT 1.596 (25° C./60% RH 9M): 0.096
- Impurity RRT 1.640 (25° C./60% RH 9M): 0.062
- Impurity RRT 1.698 (25° C./60% RH 9M): 0.055
- Impurity RRT 1.826 (25° C./60% RH 9M): 0.053
- Total Impurity (25° C./60% RH 9M): 1.477
- Water (25° C./60% RH 9M): 5.36 % W/W
- Assay (25° C./60% RH 12M): 98.10 % W/W
- Description (25° C./60% RH 12M): White
- Highest Impurity (25° C./60% RH 12M): 0.399
- Impurity RRT 0.138 (25° C./60% RH 12M): 0.204
- Impurity RRT 0.935 (25° C./60% RH 12M): 0.399
SMILES: CC(C)c1c(C(=O)Nc2ccc(CO)cc2)c(-c2ccccc2)c(-c2ccc(F)cc2)n1CC[C@@H](O)C[C@@H](O)CC(=O)[O-].CC(C)c1c(C(=O)Nc2ccc(CO)cc2)c(-c2ccccc2)c(-c2ccc(F)cc2)n1CC[C@@H](O)C[C@@H](O)CC(=O)[O-].[Ca+2] [Form I, (3R,5)-7-[2-(4-fluorophenyl)-5-isopropyl-3-phenyl-4-[(4-hydroxymethylphenylamino)carbonyl]-pyrrol-1-yl]-3,5-dihydroxy-heptanoic acid, hemi calcium salt]
